This note sets out measurements from patent US7786141B2 (Vertex Pharmaceuticals Incorporated, priority 2004, dated 2010).

The target of one assay is T1, M1 muscarinic receptor (Homo sapiens, UniProt P11229).
T1 construct: expressed in transfected cells; host or cells: CHO (M1-CHO)
T1 sequence (P11229 1-460): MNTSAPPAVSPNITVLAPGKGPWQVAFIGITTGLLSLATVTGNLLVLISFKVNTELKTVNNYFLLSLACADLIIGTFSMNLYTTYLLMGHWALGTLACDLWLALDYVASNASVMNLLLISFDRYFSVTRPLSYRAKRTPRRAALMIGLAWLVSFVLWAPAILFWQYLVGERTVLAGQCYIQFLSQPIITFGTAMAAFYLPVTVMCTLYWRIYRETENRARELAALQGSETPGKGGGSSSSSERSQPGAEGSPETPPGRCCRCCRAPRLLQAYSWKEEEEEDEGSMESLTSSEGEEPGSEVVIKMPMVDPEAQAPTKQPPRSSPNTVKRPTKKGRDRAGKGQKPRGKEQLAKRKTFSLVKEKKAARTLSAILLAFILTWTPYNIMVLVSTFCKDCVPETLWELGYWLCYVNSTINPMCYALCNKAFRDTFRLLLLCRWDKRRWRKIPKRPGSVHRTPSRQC
In words: Functional mobilization of intracellular calcium (FLIPR) in M1-CHO cells. As to conditions: M1 receptor, calcium mobilization; for Emax: read-out: M1 Efficacy. The class given is cell-based. Summed up:
(§1)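 CHO cells stably expressing human M1 or M4 receptor were loaded with Fluo-3 AM (or Calcium 3 dye) in Hepes-buffered saline, pH 7.4, with 1 mM probenecid, 0.5% final DMSO. Agonist mode: compound added directly; antagonist mode: 15 min preincubation before carbachol at EC80. FLIPR fluorescence recorded 60 sec.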

A further assay concerns the target T2, M4 muscarinic receptor (Homo sapiens, UniProt P08173).
T2 construct: expressed in transfected cells; host or cells: CHO (M4-CHO)
T2 sequence (P08173 1-479): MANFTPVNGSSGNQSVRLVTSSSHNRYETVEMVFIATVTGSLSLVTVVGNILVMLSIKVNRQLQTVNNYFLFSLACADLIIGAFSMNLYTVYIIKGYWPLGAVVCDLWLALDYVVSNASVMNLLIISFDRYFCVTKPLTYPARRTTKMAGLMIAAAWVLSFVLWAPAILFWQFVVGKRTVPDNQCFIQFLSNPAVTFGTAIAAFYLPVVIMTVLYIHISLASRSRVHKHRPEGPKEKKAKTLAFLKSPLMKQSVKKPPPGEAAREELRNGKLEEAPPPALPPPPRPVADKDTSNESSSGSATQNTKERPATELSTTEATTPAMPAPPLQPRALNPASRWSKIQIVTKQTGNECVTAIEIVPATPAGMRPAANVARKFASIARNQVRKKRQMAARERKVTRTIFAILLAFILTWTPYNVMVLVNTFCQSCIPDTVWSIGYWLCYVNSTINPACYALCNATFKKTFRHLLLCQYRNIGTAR
Description: Functional mobilization of intracellular calcium (FLIPR) in M4-CHO cells. The class given is cell-based. To be noted: M4 receptor, calcium mobilization; for Emax: read-out: M4 Efficacy. Summed up:
as §1

For `CS(=O)(=O)N[C@H]1CC2(CCN(C[C@H]3C[C@H]4C=C[C@H]3C4)CC2)c2ccccc21` [compound 70], at M1 muscarinic receptor, the “M1 Activity” value is “xx (activity was measured to be between 0.1 μM and 1.0 μM)”; the Emax lay in the range of 65 to 85%. In addition, at M4 muscarinic receptor, the “M4 Activity” value is on record as “x (activity was measured to be greater than 1.0 μM)” and the Emax is 65 to 85%.
`COCCOC(=O)N1C2CCC1CC(N1CCC3(CC1)C(=O)Nc1ccccc13)C2` (centres unmarked) [compound 71]: at M1 muscarinic receptor, the “M1 Activity” value was “xxx (activity was measured to be less than 0.1 μM)” and the Emax was below 65%. On M4 muscarinic receptor, the “M4 Activity” value is “xx (activity was measured to be between 0.1 μM and 1.0 μM)”; the Emax is below 65%.
On to `Cc1ccc2c(c1)C1(CCN(C3C4CCCC3CCC4)CC1)CN2` (centres unmarked) [compound 72], for which, at M1 muscarinic receptor, the “M1 Activity” value is “xxx (activity was measured to be less than 0.1 μM)” and the Emax is 65 to 85%. Besides, on M4 muscarinic receptor, the “M4 Activity” value was “xx (activity was measured to be between 0.1 μM and 1.0 μM)”; the Emax fell in the range of 65 to 85%.
On to `CCOC(=O)N1C2CCC1CC(N1CCC3(CC1)CN(C(=O)c1cc(C)oc1C)c1ccc(F)cc13)C2` (centres unmarked) [compound 73], for which, on M1 muscarinic receptor, the “M1 Activity” value is given as “xxx (activity was measured to be less than 0.1 μM)” and the Emax lay in the range of 65 to 85%. At M4 muscarinic receptor, the “M4 Activity” value is “xx (activity was measured to be between 0.1 μM and 1.0 μM)”; the Emax was 65 to 85%.
Consider `CCCc1ccc2c(c1)C1(CCN(C3CCN(C(=O)OCC)CC3)CC1)CN2C(C)=O` [compound 74], for which, at M1 muscarinic receptor, the “M1 Activity” value is “xxx (activity was measured to be less than 0.1 μM)” and the Emax lay within 65 to 85%. Further, on M4 muscarinic receptor, the “M4 Activity” value was “xx (activity was measured to be between 0.1 μM and 1.0 μM)”; the Emax is 65 to 85%.
As for `CC(=O)N1CC2(CCN(CC3CCCOC3)CC2)c2cc(F)ccc21` (centres unmarked) [compound 75], on M1 muscarinic receptor, the “M1 Activity” value is reported as “xxx (activity was measured to be less than 0.1 μM)” and the Emax was below 65%. In addition, on M4 muscarinic receptor, the “M4 Activity” value was “xx (activity was measured to be between 0.1 μM and 1.0 μM)”; the Emax was in the range of 65 to 85%.
`COCCOC(=O)N1C2CCC1CC(N1CCC3(CC1)CN(C(C)=O)c1ccc(F)cc13)C2` (centres unmarked) [compound 76]: on M1 muscarinic receptor, the “M1 Activity” value is reported as “xxx (activity was measured to be less than 0.1 μM)” and the Emax lay within 65 to 85%. Also, on M4 muscarinic receptor, the “M4 Activity” value is “xx (activity was measured to be between 0.1 μM and 1.0 μM)”; the Emax was in the range of 65 to 85%.
Turning to `CCOC(=O)N1CCC(N2CCC3(CC2)CN(C(=O)c2ccc(F)cc2)c2ccc(F)cc23)CC1` [compound 77], at M1 muscarinic receptor, the “M1 Activity” value was “xxx (activity was measured to be less than 0.1 μM)” and the Emax was 65 to 85%. For the same compound, on M4 muscarinic receptor, the “M4 Activity” value was “xx (activity was measured to be between 0.1 μM and 1.0 μM)”; the Emax is below 65%.
With `CCOC(=O)N1CCC(N2CCC3(CC2)CN(C(C)=O)c2ccc(-c4ccccc4C)cc23)CC1` [compound 78], on M1 muscarinic receptor, the “M1 Activity” value is listed as “xxx (activity was measured to be less than 0.1 μM)” and the Emax is 65 to 85%. Moreover, on M4 muscarinic receptor, the “M4 Activity” value was “xx (activity was measured to be between 0.1 μM and 1.0 μM)”; the Emax is below 65%.
`CCCOC(=O)N1CCC(N2CCC3(CC2)CN(C(C)=O)c2ccc(F)cc23)CC1` [compound 79]: at M1 muscarinic receptor, the “M1 Activity” value is “xx (activity was measured to be between 0.1 μM and 1.0 μM)”; the Emax is below 65%. Moreover, on M4 muscarinic receptor, the “M4 Activity” value was “x (activity was measured to be greater than 1.0 μM)” and the Emax is below 65%.
Consider `COCCOC(=O)N1CC2(CCN(C3CC4CCC(C3)N4C(=O)O[C@H]3CCOC3)CC2)c2cc(F)ccc21` (some centres unmarked) [compound 80], for which, at M1 muscarinic receptor, the “M1 Activity” value was “xx (activity was measured to be between 0.1 μM and 1.0 μM)”; the Emax was below 65%. For the same compound, on M4 muscarinic receptor, the “M4 Activity” value was “xx (activity was measured to be between 0.1 μM and 1.0 μM)”; the Emax is below 65%.
